Reference: US20170224679A1, “Use of CXCR2 Antagonists For The Prevention and/or Treatment of Chemotherapy Induced Peripheral Neuropathy (CIPN)” (GlaxoSmithKline Intellectual Property Development Limited, priority 2014, published 2017)

Key:
[1] = molecular target: T1, CXCR1 receptor (Homo sapiens, UniProt P25024); assay: Receptor binding assay ([125I] IL-8 SPA), CXCR1; set-up: expressed in transfected cells; host or cells: CHO cells (membranes); conditions: [125I] IL-8 binding, CHO-CXCR1 membranes; read-out: pIC50 against the CXCR1 receptor (converted)
T1 sequence (P25024 1-350): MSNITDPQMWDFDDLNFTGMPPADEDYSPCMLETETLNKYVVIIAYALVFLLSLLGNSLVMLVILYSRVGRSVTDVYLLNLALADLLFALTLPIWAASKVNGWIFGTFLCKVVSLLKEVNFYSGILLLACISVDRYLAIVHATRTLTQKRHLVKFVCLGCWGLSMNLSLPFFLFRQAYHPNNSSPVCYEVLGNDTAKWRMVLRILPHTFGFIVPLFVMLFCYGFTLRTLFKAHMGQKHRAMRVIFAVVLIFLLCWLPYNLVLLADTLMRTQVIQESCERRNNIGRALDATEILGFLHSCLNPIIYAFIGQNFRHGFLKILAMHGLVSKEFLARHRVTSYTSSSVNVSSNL
Procedure: [^125I] IL-8 (human recombinant, IM249) was obtained from Amersham Corp., Arlington Heights, Ill., with specific activity 2000 Ci/mmol. All other chemicals were of analytical grade. High levels of recombinant human CXCR1 and CXCR2 receptors were individually expressed in Chinese hamster ovary (CHO) cells as described in Holmes, et al., Science, 1991, 253, 1278, incorporated herein to the extent required to perform the present assay. The Chinese hamster ovary membranes were prepared according to Haour, et al., J. Biol. Chem., 249 pp 2195-2205 (1974), incorporated herein to the extent required to perform the present assay, except that the homogenization buffer was changed to 40 mM Tris-HCL pH 7.5 containing 1 mM MgSO4, 0.5 mM EDTA (ethylene-diaminetetra-acetic acid), 1 mM PMSF (α-toluene-sulphonyl fluoride), 2.5 mg/L Leupeptin and 0.1 mg/ml Aprotinin. Membrane protein concentration was determined using Bio-Rad Reagent using bovine serum albumin as a standard. All binding assays were conducted using Scintillation Proximity Assay (SPA assay) using wheatgerm agglutinin beads in a 96-well micro plate (optiplate 96, Packard) format. […] The 96-well plates were incubated on a shaking platform for 1 hour. At the end of the incubation the plates were spun for 5 min at 2000 RPM, and counted in a Top Count counter.

[2] = molecular target: T2, CXCR2 receptor (Homo sapiens, UniProt P25025); assay: CXCR2 Tango assay; assay type: cell-based; set-up: fused on or other part: TEV protease cleavage site and Gal4-VP16 transcription factor fused to the receptor (Invitrogen Tango construct); no part of the key; conditions: Tango reporter gene, 80 nM hCXCL1; read-out: pIC50 against the CXCR2 receptor (converted)
T2 sequence (P25025 1-360): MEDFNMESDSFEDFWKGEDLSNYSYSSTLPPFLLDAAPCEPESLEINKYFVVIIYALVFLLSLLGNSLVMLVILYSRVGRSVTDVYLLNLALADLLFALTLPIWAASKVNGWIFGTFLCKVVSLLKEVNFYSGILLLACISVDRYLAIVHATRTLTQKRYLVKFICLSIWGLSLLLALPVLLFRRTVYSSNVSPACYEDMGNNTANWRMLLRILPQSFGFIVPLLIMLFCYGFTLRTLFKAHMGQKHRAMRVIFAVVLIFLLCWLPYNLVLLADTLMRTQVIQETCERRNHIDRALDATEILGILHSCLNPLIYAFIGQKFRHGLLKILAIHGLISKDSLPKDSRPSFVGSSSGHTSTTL
From the text: The assay measures ligand-induced activation of the receptor CXCR2 in a stable cell line containing the recombinant human CXCR2 linked to a TEV protease site and a Gal4-VP16 transcription factor (Invitrogen). Ligand binding to the receptor results in the recruitment of arrestin proteins (tagged with protease) to the receptor and triggers the release of a tethered transcription factor. The transcription factor enters the nucleus and activates the transcription of the reporter gene. The ability of a compound to inhibit CXCR2 activation is indirectly assessed by measuring the reporter gene activity.
A vial of cryopreserved cells was removed from liquid nitrogen and rapidly thawed in a water bath at 37° C. with gentle agitation. The cell contents were collected and resuspended in Assay Medium at a density of ˜200,000 cells/ml. All test compounds were dissolved in DMSO at a concentration of 10 mM and then were serially diluted to generate a 10-point dose response curve into 384-well assay plate (Greiner 781090) using an Echo (Labcyte) concentration-response program (50 nl/well). The cell-free, un-stimulated and positive controls were loaded with 50 nl/well pure DMSO to ensure that the DMSO concentration was constant across the plate for all assays. Using Multi-drop Combi (Thermo) with standard cassette, 50 μl of Assay Medium was added to cell-free control wells in compound-containing assay plate; 50 μl of the cell suspension without hCXCL1 (a CXCR2 ligand) was added to un-stimulated control wells (10,000 cells per well); and 50 μl of the cell suspension with 80 nM hCXCL1 was added to the rest of wells of the assay plate (10,000 cells per well). The cells were incubated overnight at 37° C./5% CO2·10 μl of 6× substrate mixture (LiveBLAzer™-FRET B/G substrate (CCF4-AM) Cat #K1096 from Invitrogen, Inc.) was added to each well using Multi-drop Combi (Thermo) with small-tube cassette and the plate was incubated at room temperature for 2 h in the dark. The plate was then read on EnVision using one excitation channel (409 nm) and two emission channels (460 nm and 530 nm).
The blue/green emission ratio (460 nm/530 nm) was calculated for each well by dividing the background-subtracted Blue emission values by the background-subtracted Green emission values. The dose response curve was based on sigmoidal dose-response model. All ratio data was normalized based upon the maximum emission ratio of positive control (hCXCL1) and minimum emission ratio of negative control (DMSO) on each plate.

[3] = test system: HCT116 cell line; assay: Colorectal cancer cell line proliferation assay, HCT116; assay type: cell-based; conditions: HCT116, 72 hours
Procedure: Cell proliferation assay: Cells were seeded in 96-well plates (Costar) at different cell densities: HCT116, 500 cells per well; Caco-2, 1000 cells per well. Total volume of the medium was 90 μl per well. Cells were incubated for 24 hours at 37° C. and 5% CO2 incubator. […] The final concentration of the Compound of Formula (A) was 8.5 μM. […] The cell proliferation rate was measured by adding 100 μl of CellTiter-Glo™ (Promega) according to the manufacturer's instructions. After 10 minutes of incubation, the cell lysates were transferred into OptiPlate-384 well, the luminescence was recorded by BioTek Synergy™ 4 Hybrid Microplate Reader with Gen5 software. All data points were generated in five replicates. Three independent experiments were performed. […] All data were presented as the mean±standard error of the mean determined from three independent experiments.

[4] = test system: Sprague-Dawley rats; assay: CXCR2 antagonist effect on repeat dosing oxaliplatin induced sensory injury rat; conditions: Veh/Oxa rats, 4 mg/kg i.p. twice per week for 4 weeks, Day 29-31, mean±SEM
Procedure: Male Sprague-Dawley rats (109-167 g, ˜5weeks old) were housed in cages in groups of three in a controlled environment of constant temperature and moisture (temperature: 25±3° C., light: dark cycle of 12:12 hours) with food (25 g/rat/day of LabDiet 5053) and water available ad libitum.
MC (Sigma Cat #423238) was made up in water at 1% (w/v) (1 g per 100 mL water) and left on a stirrer until completely dissolved. The formulation was prepared every 6-8 days in 400-700 mL each time and stored at 4° C. protected from light. The dosing volume used was 10 mL/kg to give a 20 mg/kg p.o. dose. Vehicle treated animals were dosed b.i.d. with 1% MC w/v at 10 mL/kg p.o.
A fresh solution was prepared before every injection. Control vehicle animals were treated with 5% w/v Gluclose at 5ml/kg. Glucose (Sigma Aldrich Cat #G7021) was made up in milli-Q water at 5% (w/v) (5 g per 100 mL water) and left on a stirrer until completely dissolved.
Body weight tracking: The bodyweights of rats were measured twice a week for 4 weeks on Days 1, 3, 9, 11, 16, 18, 23, and 25. […]
Rats were anesthetized with chloral hydrate (350 mg/kg, 3.5 mL/kg, i.p.). […] The right sciatic nerve was carefully identified and conduction velocity was measured by recording action potentials from an electrode placed between the second and third digits as described by Jamieson et al., Br. J. Cancer, 88(12):1942-7 (2003), and electrically stimulating the nerve (5V, 0.5 s, single-wave pulses) via a platinum wire electrode at the sciatic notch and ankle. The length between the sciatic notch and ankle was measured.
The nerve conduction velocity was calculated as the length between sciatic notch and ankle divided by the difference between the time latencies at the stimulation sites [latency (sciatic notch)−latency (ankle)].
A 1 cm segment of the left sciatic nerve (distal end) was located and carefully dissected out. […] The ratio of inner area over entire area of nerve fibers of sciatic nerves was then calculated as an indicator of thickness of myelin sheath of nerves.

| IC50 [2] [nM] | Structure (SMILES) | also measured |
| --- | --- | --- |
| – | Cc1c(F)cccc1NC(=O)Nc1ccc(Cl)c(S(=O)(=O)C2CCCNC2)c1O (stereo not shown) [Compound of Formula (B), 1-(4-chloro-2-hydroxy-3-(piperidin-3-ylsulfonyl)phenyl)-3-(3-fluoro-2-methylphenyl)urea] | IC50 [1]: 1000 nM |
| 1 | CC1=CCC[C@H]1NC(=O)Nc1ccc(Cl)c(S(=O)(=O)[C@]2(C)CCOC2)c1O [Compound of Formula (C), 1-(4-chloro-2-hydroxy-3-(((R)-3-methyltetrahydrofuran-3-yl)sulfonyl)phenyl)-3-((R)-2-methylcyclopent-2-en-1-yl)urea] | – |
| 1.58 | CC1(S(=O)(=O)c2c(Cl)ccc(NC(=O)N[C@@H]3CCC=C3Cl)c2O)CCOCC1 [Compound of Formula (E), (R)-1-(4-chloro-2-hydroxy-3-((4-methyltetrahydro-2H-pyran-4-yl)sulfonyl)phenyl)-3-(2-chlorocyclopent-2-en-1-yl)urea] | – |
| 0.2 | CC1=CCC[C@H]1NC(=O)Nc1ccc(C#N)c(S(=O)(=O)C(C)(C)C)c1O [Compound of Formula (F), (R)-1-(3-(tert-butylsulfonyl)-4-cyano-2-hydroxyphenyl)-3-(2-methylcyclopent-2-en-1-yl)urea] | – |
| 1 | CC1=CCC[C@H]1NC(=O)Nc1ccc(Cl)c(S(=O)(=O)[C@H]2C[C@H](N3CCCC3)C2)c1O [Compound of Formula (G), 1-(4-chloro-2-hydroxy-3-((trans-3-(pyrrolidin-1-yl)cyclobutyl)sulfonyl)phenyl)-3-((R)-2-methylcyclopent-2-en-1-yl)urea] | – |
| 1 | CC1=CCC[C@H]1NC(=O)Nc1ccc(Cl)c(S(=O)(=O)[C@H]2C[C@H](N(C)C)C2)c1O [Compound of Formula (H), 1-(4-chloro-3-((trans-3-(dimethylamino)cyclobutyl)sulfonyl)-2-hydroxyphenyl)-3-((R)-2-methylcyclopent-2-en-1-yl)urea] | – |
| 0.398 | CC1=CCC[C@H]1NC(=O)Nc1ccc(Cl)c(S(=O)(=O)C(C)(F)F)c1O [Compound of Formula (I), (R)-1-(4-chloro-3-((1,1-difluoroethyl)sulfonyl)-2-hydroxyphenyl)-3-(2-methylcyclopent-2-en-1-yl)urea] | – |
| – | O=C1[O][Pt]2([NH][C@@H]3CCCC[C@H]3[NH]2)[O]C1=O [Oxaliplatin, oxaliplatin] | pIC50 inhibition of cell proliferation ([3]; oxaliplatin with vehicle, mean±SEM): 6.049±0.016; pIC50 inhibition of cell proliferation in the presence of Compound of Formula (A) ([3]; with Compound of Formula (A) 8.5 μM): 6.05±0.02; sciatic nerve conduction velocity between sciatic notch and ankle [4]: 35.99±0.59 m/s |
